Literature values in US20080293652A1, “Combination of Ad-P53 and Chemotherapy for the Treatment of Tumours” (priority 2004, published 2008).
Numbered stars: 1 amine (or outer) side, 2 acyl side, 3 side chain; on linkers, the order of the positions; unused ones are H or OH. Bridge positions count the residues as written; N and C are the ends. Square brackets hold non-standard residues; d marks the D form. Peptide text beside a SMILES is read from it. I, II: the chains in the order shown. Actinocin(9to1) = Cc1c2oc3c(C)ccc(C(=O)[*:1])c3nc-2c(C(=O)[*:2])c(N)c1=O; NMeV = CN[C@H](C(=O)O)C(C)C; Sar = CNCC(=O)O

Tests used:
multiple myeloma = details: oral administration
[1] = for part of the dose excreted / detected intact in the urine: in vivo

SMILES	part of the dose excreted / detected intact in the urine [1]	also measured
N[C@@H](Cc1ccc(N(CCCl)CCCl)cc1)C(=O)O [Melphalan, 4-[bis(2-chloroethyl)amino]-L-phenylalanine]		part of patients showing a favorable response (multiple myeloma): one third to one half
CC[C@]1(O)C[C@H]2CN(CCc3c([nH]c4ccccc34)[C@@](C(=O)OC)(c3cc4c(cc3OC)N(C=O)[C@H]3[C@@](O)(C(=O)OC)[C@H](OC(C)=O)[C@]5(CC)C=CCN6CC[C@]43[C@@H]65)C2)C1 [Vincristine]		terminal half-life (clearance from plasma) ([1]; multiphasic clearance): about 24 hours
Cc1c2oc3c(C)ccc(C(=O)N[C@@H]4C(=O)N[C@H](C(C)C)C(=O)N5CCC[C@H]5C(=O)N(C)CC(=O)N(C)[C@@H](C(C)C)C(=O)O[C@@H]4C)c3nc-2c(C(=O)N[C@@H]2C(=O)N[C@H](C(C)C)C(=O)N3CCC[C@H]3C(=O)N(C)CC(=O)N(C)[C@@H](C(C)C)C(=O)O[C@@H]2C)c(N)c1=O [Actinomycin D] (I: T[dV]P[Sar][NMeV] / II: T[dV]P[Sar][NMeV]; ester I:1-I:C, II:1-II:C; linker I:N-II:N via Actinocin(9to1))	10%	
CC[C@]1(O)C[C@@H]2CN(CCc3c([nH]c4ccccc34)[C@@](C(=O)OC)(c3cc4c(cc3OC)N(C)[C@H]3[C@@](O)(C(=O)OC)[C@H](OC(C)=O)[C@]5(CC)C=CCN6CC[C@]43[C@@H]65)C2)C1 [Vinblastine]	Approximately 15%	
